Data reported in patent US20240124456A1, “AZA-ERGOLINE DERIVATIVE AND PREPARATION METHOD THEREFOR AND APPLICATION THEREOF” (SHANGHAITECH UNIVERSITY, priority 2021, published 2024).

Experiments:
[1] = target: T1, dopamine D2 receptors (Homo sapiens (Human), UniProt P14416); experiment: Radioligand competition binding, affinity for dopamine D2 receptors ([3H]-Methylspiperone); settings: [3H]-Methylspiperone (0.3-0.5 nM), HEK-293T membranes; for Ki: I-1 to 19 n=3, I-20 to 27 single determination; for Affinity pKi ± SEM: n=3
T1 sequence (P14416 whole entry): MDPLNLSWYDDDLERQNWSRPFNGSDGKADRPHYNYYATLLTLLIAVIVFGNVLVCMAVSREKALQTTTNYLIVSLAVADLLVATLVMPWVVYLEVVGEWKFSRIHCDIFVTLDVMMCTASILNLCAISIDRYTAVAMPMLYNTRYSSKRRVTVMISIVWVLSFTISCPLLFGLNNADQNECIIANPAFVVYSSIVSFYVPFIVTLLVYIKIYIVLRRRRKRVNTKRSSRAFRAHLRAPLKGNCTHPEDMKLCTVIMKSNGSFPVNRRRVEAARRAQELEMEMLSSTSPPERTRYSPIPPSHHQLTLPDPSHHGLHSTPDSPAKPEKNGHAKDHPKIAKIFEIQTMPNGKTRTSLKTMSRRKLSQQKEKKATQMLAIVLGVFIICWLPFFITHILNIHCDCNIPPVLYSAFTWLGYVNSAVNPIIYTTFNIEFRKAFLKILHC
Protocol: A 10 cm diameter dish was used for transfection with 10 ng of the dopamine D2 receptors and 40 μL of PEI. After 48 hours, the 10 cm dish was taken out from the cell culture room and the cultured cells had expressed the dopamine D2 receptors. A vacuum pump was used to suck off the culture medium, 3 mL of lysis buffer (50 mM Tris hydrochloric acid buffer, pH 7.4) was added to each well, and the cells were placed in a 4° C. freezer for 10 minutes. After the cells were detached, the cells were transferred to a 15 mL centrifuge tube and centrifuged at 1500 rpm for 5 minutes at 4° C., and the supernatant was discarded. The cell pellet was transferred to a tissue homogenizer, and 3 mL of lysis buffer was added and fully ground until the cells were broken. Then, cell suspension was equally divided into several EP tubes, centrifuged at 4° C. and 12000 rpm for 5 min, and the supernatant was discarded. The precipitate was the cell membrane component containing the dopamine D2 receptors and stored at −80° C.
First, a standard binding buffer (50 mM HEPES, 50 mM NaCl, 5 mM MgCl2, 0.5 mM EDTA, pH 7.4) was added to the cell membrane component containing the dopamine D2 receptors, and the cell membrane was disrupted and resuspended with an electric tissue homogenizer. 30 μL of membrane protein suspension was added to each well of a 96-well plate. Then, 30 μL of different drugs were added to the 96-well plate from left to right to ensure that the final drug concentrations were 10^−5 M, 10^−6 M, 10^−7 M, 10^−8 M, 10^−9 M and 0 M, with two replicates per treatment. Next, 30 μL [^3H]-N-Methylspiperone was added to each well of the 96-well plate, and the plate was incubated for 2 hours at room temperature in the dark. The unbound isotopes were removed by Whatman GF/C filter membrane and vacuum pump, and the isotopes bound to the receptors were detected by MicroBeta isotope liquid scintillation counter.
The affinity of the compounds of the present invention for the dopamine D2 receptors was determined by the method of radioligand competition experiment. In the first step, a cell membrane component containing specific dopamine D2 receptors was prepared. A10 cm dish was used for transfection with 10 ng of the dopamine D2 receptors and 40 μL of PEI. After 48 hours, the 10 cm dish was taken out from the cell culture room and the cultured cells had expressed the dopamine D2 receptors. A vacuum pump was used to suck off the culture medium, 3 mL of lysis buffer was added to each well, and the cells were placed in a 4° C. freezer for 10 minutes. After the cells were detached, the cells were transferred to a 15 mL centrifuge tube and centrifuged at 1500 rpm for 5 minutes at 4° C., and the supernatant was discarded. The cell pellet was transferred to a tissue homogenizer, and 3 mL of lysis buffer was added and fully ground until the cells were broken. Then, cell suspension was equally divided into several EP tubes, centrifuged at 4° C. and 12000 rpm for 5 min, and the supernatant was discarded. The precipitate was the cell membrane component containing the dopamine D2 receptors. […] First, a standard binding buffer was added to the cell membrane component containing the dopamine D2 receptors, and the cell membrane was disrupted and resuspended with an electric tissue homogenizer. 30 μL of membrane protein suspension was added to each well of a 96-well plate. Then, 30 μL of different drugs were added to the 96-well plate from left to right to ensure that the final drug concentrations were 10^−5 M, 10^−6 M, 10^−7 M, 10^−8 M, 10^−9 M and 0 M, with two replicates per treatment. Next, 30 μL [^3H]-Methylspiperone was added to each well of the 96-well plate. The plate was incubated for 2 hours at room temperature in the dark. Detection. The machine reading value reflected the amount of [^3H]-Methylspiperone bound on the membrane, and after further data processing, the affinity Ki value of different compounds for dopamine D2 receptors was obtained.

[2] = target: T1, dopamine D2 receptors; experiment: G protein Gαi1-γ9 dissociation BRET, dopamine D2 receptor functional activity; format: cell-based; settings: for Emax: read-out: Gai1 BRET Emax % ± SEM
Protocol: To examine downstream G protein signaling mediated by dopamine D2 receptors, 6 cm dish was used for transfection with 1μg of dopamine D2 receptors, 1μg of Gαi1 fused to seaweed luciferase (Gαi1-Rluc), 1 μg of Gβ3, 1 μg of Gγ9 fused to green fluorescent protein (Gγ9-GFP) and 16 μL of transfection reagent PEI. […] On the third day, the drugs were added for test.
(§1) To examine downstream G-protein signaling pathway mediated by dopamine D2 receptors, on the first day, 6 cm dish was used for transfection with 1μg of dopamine D2 receptors, 1μg of Gαi1 containing C-terminal seaweed luciferase (GGαi1-Rluc), 1 μg of […], 1 μg of Gγ9 containing C-terminal green fluorescent protein (Gγ9-GFP) and 16 μL of PEI. At the same time, in order to examine the downstream f3-arrestin2 signaling pathway mediated by dopamine D2 receptors, on the first day, 6 cm dish was used for transfection with 500 μg of dopamine D2 receptors containing C-terminal seaweed luciferase (D2-Rluc), 500 μg of G protein-coupled receptor kinase 2 (GRK2), 2500 μg of […] containing N-terminal green fluorescent protein (GFP2-ARRB2) and 14 μL of PEI. The next day, the overgrown cells were digested and plated a 96-well plate at the amount of cells contained in a 6 cm culture dish with overgrown cells, and 100 μL of culture medium was added to each well. On the third day, the drugs were added for test. The 96-well plate was taken out from the cell culture room to remove the culture medium, 40 μL of the substrate coelenterazine 400a (final concentration of 5 μM) was added to each well, and then 20 μL of different drugs were added in turn from left to right to ensure that the final concentration of the drugs decreased gradually from bottom to top, and each treatment was repeated twice. Finally, the prepared samples were loaded on machine for test. The machine reading value reflected the intracellular β-arrestin2 on the membrane and the dissociation of G protein trimer. The former indicated the degree of activation of the β-arrestin2 signaling pathway downstream of the dopamine D2 receptors, and the latter indicated the degree of activation of the G protein signaling pathway downstream of the dopamine D2 receptors.

[3] = target: T1, dopamine D2 receptors; experiment: β-arrestin2 recruitment BRET, dopamine D2 receptor functional activity; format: cell-based; settings: for Emax: read-out: β-arrestin2 BRET Emax % ± SEM
Protocol: To examine the downstream f3-arrestin2 signaling pathway mediated by dopamine D2 receptors, 6 cm dish was used for transfection with 500 […] of dopamine D2 receptors fused to seaweed luciferase (D2-Rluc), 500 μg of G protein-coupled receptor kinase 2 (GRK2), 2500 μg of β-arrestin2 fused to green fluorescent protein (GFP2-ARRB2) and 14 μL of transfection reagent PEI. The next day, the overgrown cells were digested and plated a 96-well plate at the amount of cells contained in a 6 cm culture dish with overgrown cells, and 100 μL of culture medium was added to each well. On the third day, the drugs were added for test.
as §1

[4] = HEK-293T, I-1 to 19 n=3, I-20 to 27 single determination, read-out: Gai1 BRET EC50
[5] = n=3, read-out: Gai1 BRET pEC50 ± SEM (converted)
[6] = relative to the endogenous ligand dopamine
[7] = n=3, read-out: β-arrestin2 BRET pEC50 ± SEM (converted)
[8] = HEK-293T, I-1 to 19 n=3, I-20 to 27 single determination, read-out: β-arrestin2 BRET EC50

| Compound | Ki [1] [nM] | Affinity pKi ± SEM [1] | EC50 [2, 4] [nM] | EC50 [2, 5] [nM] | Emax [2, 6] [%] | EC50 [3, 7] [nM] | Emax [3, 6] [%] | EC50 [3, 8] [nM] | Gai1 BRET Emax % ± SEM [2, 6] [%] | β-arrestin2 BRET Emax % ± SEM [3, 6] [%] |
| --- | --- | --- | --- | --- | --- | --- | --- | --- | --- | --- |
| CN(C)C(=O)N[C@H]1CC[C@H](CCN2CCN3c4cccc5c4c(cn5C)CC3C2)CC1 (stereo partly drawn) [Compound I-19, 1,1-dimethyl-3-(4-(2-(4-methyl-4,6,6a,7,9,10-hexahydro-8H-pyrazino[1,2-a]pyrrolo[4,3,2-de]quinolin-8-yl)ethyl)trans-cyclohexyl)urea] | 52.7 | (7.28 ± 0.15) | 4 | 4.17 | 71 | 28.8 | 34 |  |  |  |
| Cc1nc2cc(OCCCCN3CCN4c5cccc6[nH]cc(c56)CC4C3)ccc2o1 (stereo not shown) [Compound I-4, 5-(4-(4,6,6a,7,9,10-hexahydro-8H-pyrazino[1,2-a]pyrrolo[4,3,2-de]quinolin-8-yl)butoxy)-2-methylbenzo[d]oxazole] | 30.3 | (7.52 ± 0.08) | 6.68 |  | 80 |  | 66 | 71 |  |  |
| O=c1ccc2ccc(OCCCCN3CCN4c5cccc6[nH]cc(c56)CC4C3)cc2[nH]1 (single isomer, unassigned; (-)) [(−)-I-2] | 1.75 |  | 3 | 2.75 |  | 18.2 |  |  | 91 ± 3 | 76 ± 2 |
| c1cc2c3c(c[nH]c3c1)CC1CN(CCCCOc3ccc4c(c3)OCC4)CCN21 (stereo not shown) [Compound I-6, 8-(4-((2,3-dihydrobenzofuran-6-yl)oxy)butyl)-6,6a,7,8,9,10-hexahydro-4H-pyrazino[1,2-a]pyrrolo[4,3,2-de]quinoline] | 51.6 | (7.29 ± 0.10) | 6.64 |  | 86 |  | 61 | 61.6 |  |  |
| O=S(=O)(N[C@H]1CC[C@H](CCN2CCN3c4cccc5[nH]cc(c45)CC3C2)CC1)c1ccccc1 (stereo partly shown) [Compound I-15, N-(4-(2-(4,6,6a,7,9,10-hexahydro-8H-pyrazino[1,2-a]pyrrolo[4,3,2-de]quinolin-8-yl)ethyl)cyclohexyl)phenylsulfonamide] | 77.5 | (7.11 ± 0.12) | 2.65 |  | 94 |  | 80 | 31.5 |  |  |
| O=C1CCc2ccc(OCCCN3CCN4c5cccc6[nH]cc(c56)CC4C3)cc2N1 (stereo not shown) [Compound I-7, 7-(3-(4,6,6a,7,9,10-hexahydro-8H-pyrazino[1,2-a]pyrrolo[4,3,2-de]quinolin-8-yl)propoxy)-3,4-dihydroquinolin-2(1H)-one] | 403 | (6.40 ± 0.12) | 138 |  | 104 |  | 97 | 275 |  |  |
| O=c1ccc2ccc(OCCCCN3CCN4c5cccc6[nH]cc(c56)CC4C3)cc2[nH]1 (single isomer, unassigned; (+)) [(+)-I-2] | 8.87 |  | 1 | 0.851 | 95 | 15.8 | 89 |  |  |  |
| O=C(N[C@H]1CC[C@H](CCN2CCN3c4cccc5[nH]cc(c45)CC3C2)CC1)N1CCCCC1 (stereo partly drawn) [Compound I-12, N-(4-(2-(4,6,6a,7,9,10-hexahydro-8H-pyrazino[1,2-a]pyrrolo[4,3,2-de]quinolin-8-yl)ethyl)trans-cyclohexyl)piperidine-1-carboxamide] | 27.1 | (7.57 ± 0.03) | 17.4 |  | 92 |  | 89 | 20.4 |  |  |
| Cc1nc2n(c(=O)c1CCN1CCN3c4cccc5[nH]cc(c45)CC3C1)CCCC2 (stereo not shown) [Compound I-17, 3-(2-(4,6,6a,7,9,10-hexahydro-8H-pyrazino[1,2-a]pyrrolo[4,3,2-de]quinolin-8-yl)ethyl)-2-methyl-6,7,8,9-tetrahydro-4H-pyrido[1,2-a]pyrimidin-4-one] | 55.8 | (7.25 ± 0.12) | 32.7 |  | 61 | 200 | 38 | 202 |  |  |
| Cn1cc2c3c(cccc31)N1CCN(C/C=C/COc3ccc4c(c3)NC(=O)CC4)CC1C2 (stereo not shown) [Compound I-22, (E)-7-((4-(4-methyl-4,6,6a,7,9,10-hexahydro-8H-pyrazino[1,2-a]pyrrolo[4,3,2-de]quinolin-8-yl)-2-buten-1-yl)oxy)-3,4-dihydroquinolin-2(1H)-one] | 176 |  | 38 |  | 41 |  | 32 | 91.6 |  |  |
